The source of these data is patent US20210000814A1, “RIMEGEPANT FOR CGRP RELATED DISORDERS” (Biohaven Pharmaceutical Holding Company Ltd., priority 2018, published 2021).

This test concerns subjects with Acute Migraines. The test is described as follows: BHV3000-303 Phase 3 trial, rimegepant ODT, acute treatment of migraine: efficacy. The format is in vivo, human. As to conditions: Study 303; single dose. How it is done:
Clinical Trial—BHV3000-303: Phase 3: Double-Blind, Randomized, Placebo-Controlled, Safety and Efficacy Trial of BHV-3000 (Rimegepant) Orally Discintegrating Tablet (ODT) for the Acute Treatment of Migraine (ClinicalTrials.gov Identifier: NCT03461757) • A phase 3 clinical study was conducted with 1812 participants, as follows. The purpose of this study is to compare the efficacy of BHV-3000 (rimegepant ODT) versus placebo in subjects with Acute Migraines. […] Pain freedom of rimegepant compared with placebo in the acute treatment of migraine will be measured using the number of evaluable subjects that report no pain at 2 hours post-dose. [Time Frame: Two hours post dose] will be measured on a 4 point Likert scale (0=none, 1=mild, 2=moderate, 3=severe) 2. Freedom from the most bothersome symptom (MBS) of rimegepant compared with placebo will be measured using the number of evaluable subjects that report the absence of their MBS at 2 hours post-dose. […] The MBS (nausea, phonophobia or photophobia) will measured using a binary scale (0=absent, 1=present). […] To measure rimegepant compared to placebo on the probability of requiring rescue medication will be assessed using the number of subjects that take rescue medication within […] administration of study medication (BHV3000 or placebo). […]

Consider `N[C@@H]1c2cccnc2[C@H](OC(=O)N2CCC(n3c(=O)[nH]c4ncccc43)CC2)CC[C@H]1c1cccc(F)c1F` [Rimegepant, [(55,65,9R)-5-amino-6-(2,3-difluorophenyl)-6,7,8,9-tetrahydro-5H-cyclohepta[b]pyridin-9-yl]4-(2-oxo-3H-imidazo[4,5-b]pyridin-1-yl)piperidine-1-carboxylate], for which the “clinical benefit through 48 hours on pain relief, pain freedom, MBS, functional disability versus placebo” value is given as “Lasting clinical benefit”.
